Source: US20060167106A1, “Compounds acting at the centrosome” (priority 2004, published 2006)
“Also recorded” adds a separate entry of the source. Non-standard residues stand in square brackets, D forms with d. Residues, ends and D or L forms follow the SMILES beside them. *: point of attachment. Nle = CCCC[C@H](N)C(=O)O; Nva = CCC[C@H](N)C(=O)O; Cbz = O=C(OCc1ccccc1)*

Experiments:
[1] = tested on: CHO-α-tubulin-YFP cells; test: α-tubulin-YFP localization in CHO-α-tubulin-YFP cells (fluorescence imaging); format: cell-based, Chinese hamster; conditions: for accumulation of α-tubulin-YFP at the centrosomes: 5 hours; for accumulation of tubulin in the centrosomes (overall statement): CHO-tubulin-YFP cells, concentration and time not given; for accumulation of tubulin at the centrosomes versus in the nucleus (overall statement): cells treated, concentration not given
Description: Wild-type Chinese Hamster Ovary cells (WT CHO) cells were maintained in Ham's F-12 medium supplemented with 10% fetal bovine serum (FBS; HyClone, Logan, Utah). Cells of low density (˜20%) growing on 2-well chambered cover-slips (Labtek (Campbell, Calif.) or Fisher Scientific) were transfected with a mammalian expression vector encoding α-tubulin-YFP (Clontech, Palo Alto, Calif.) with the use of FuGENE 6 (Roche Molecular Biochemicals, Indianapolis, Ind.), according to the manufacturer's instructions. Twenty-four hours after transfection, the cells were cultured in 400 μg/ml G418 (Invitrogen, Carlsbad, Calif.)-containing selection medium for 2 weeks. Living cells were examined using a fluorescent microscope for α-tubulin-YFP expression. Cells in single colonies containing microtubules labeled with α-tubulin-YFP were lifted and expanded in G418-containing medium. Expression of α-tubulin-YFP was confirmed by the presence of the tubulin-YFP labeled microtubule pattern identical to immunostained microtubule pattern of non-transfected cells, as well as by subjecting the cells to Western blot analysis using an anti-GFP antibody (Roche Molecular Biochemicals, Basel, Switzerland) and confirming the correct mass of the α-tubulin-YFP chimera protein. Expressed tubulin-YFP was detected as a single band in Western blots. The tubulin-YFP expressing cell lines (referred as CHO-α-tubulin-YFP cells) were used in the studies.
CHO-α-tubulin-YFP cells were cultured in 2-well chambered cover-slips (Labtek (Campbell, Calif.) or Fisher Scientific) 24 hours before treatment. For comparison of the centrosomal effects of treatment with Compound 1, Compound 1+Taxol, and Taxol, CHO-α-tubulin-YFP cells were treated with Compound 1, Compound 1+Taxol, Taxol, or equivalent concentrations of DMSO-containing media for various time periods before imaging. For comparison of the effects of Compound 1 and known proteasome inhibitors on centrosomes, the nucleus, and perinuclear regions, CHO-α-tubulin-YFP cells were treated with Compound 1, ALLN (Calbiochem, San Diego, Calif.), lactacystin (Calbiochem, San Diego, Calif.) or MG132 (Calbiochem, San Diego, Calif.), and imaged at various time points from 3 hours to 24 hours after treatment.
Tubulin-YFP fluorescence in living cells or fixed cells was captured using a standard filter for FITC and objectives of 20× or 60× magnification on a Nikon TE300 microscope with a Leica DC50 color digital camera (Leica, Bannockburn, Ill.) or a CoolSnap HQ Monochrome CCD camera (Photonetrics, Tucson, Ariz.). The Leica DC50 and CoolSnapHQ cameras were controlled with Leica DC50 software and MetaVue/MetaMorph software, respectively (Universal Imaging Corp, Downingtown, Pa.).
CHO-α-tubulin-YFP cells were cultured in 2-well chambered cover-slips (Labtek (Campbell, Calif.) or Fisher Scientific) 24 hours before treatment. For comparison of effects on the centrosome, nucleus, and perinuclear regions, cells were treated with Compound 1 and known proteasome inhibitors including ALLN, MG132, Lactacystin, MG115, clasto-Lactacystin β-Lactone (cLβL), and Epoxomicin (10 μM final concentration for all except ALLN, which was used at 100 μM final concentration) (proteasome inhibitors were from Calbiochem, San Diego, Calif.) and imaged at various time points up to 24 hours during treatment.
Tubulin-YFP fluorescence in living cells or fixed cells was captured using a standard filter for FITC and objectives of 20× or 60× magnification on the Nikon TE300 microscope/digital imaging system.

[2] = target: T1, bovine red blood cell 20S proteasome (Bos taurus, UniProt Q32KL2); test: 20S Proteasome Assay (in vitro, Suc-Leu-Val-Tyr-AMC); format: biochemical; conditions: isolated 20S proteasome
T1 construct: bovine red blood cell 20S proteasome; purchased Calbiochem; host or cells: purified from bovine red blood cells
Experimental: 190 μl of reaction buffer (500 mM HEPES, 10 nM EDTA, pH 7.6), containing 0.03% SDS was pre-incubated for 5 minutes at 37° C. in the presence of 0.2 μg of bovine red blood cell 20S proteasome (Calbiochem, San Diego, Calif.) for temperature equilibration. Subsequently, inhibitors or Compound 1 were added to the reaction mixture at a final DMSO concentration of 0.5%. The reaction was initiated by adding 10 μl of the peptide-AMC substrate (Calbiochem, San Diego, Calif.) to each well. The emitted fluorescence was then measured every third minute at 37° C. for 90 minutes by a fluorescence plate reader (FlexStation II, Molecular Devices, Sunnyvale, Calif.) at 460 nm (λex360 nm) wavelength.
The buffers and reagents for the assay were purchased from Calbiochem (20S Proteasome Assay Kit; Calbiochem, San Diego, Calif.). The principle of the assay is that the release of free AMC (7-Amino-4-methylcoumarin) following degradation of the substrate results in a fluorescent signal that is a measure of proteasome activity. The quantitative analysis of 20S proteasome activity was assayed as described.

[3] = tested on: Hsp70; test: Hsp70 Western blotting in MDA-435 cells; format: cell-based; conditions: 0.5 μM; for percentage change in Hsp70 expression relative to DMSO control: normalized to background and GAPDH
Experimental: Calculations of the percentage changes were made by using the automated band analysis tools of the Kodak 1D (v.3.6.3) program. Band intensities were normalized to background and GAPDH.
MDA-435 breast cancer cells were grown in 100 mm plastic-tissue culture dishes and treated for 6 and 24 hours with 0.5 μM Taxol, Compound 1, Taxol+Compound 1, MG132, ALLN, or DMSO. After treatment, cells were washed in PBS and cell lysates were prepared by adding 100 μL of lysis buffer, which contained 20 mM Tris-HCl (pH 7.5), 150 mM NaCl, 1 mM Na2EDTA, 1 mM EGTA, 1% Triton, 2.5 mM sodium pyrophosphate, 1 mM β-glycerophosphate, 1 mM Na3VO4 and 1 μg/ml leupeptin (Cell Signaling Technology, Beverly, Mass.) supplemented with 1 mM PMSF (Sigma, St. Louis, Mo.) immediately before use, on ice for 1 hour. After scraping, the lysates were cleared by centrifugation at 13,000 RPM for 10 minutes at 4° C. Protein content was determined using a Bradford assay and bovine serum albumin as a standard (Bio-Rad Laboratories, Hercules, Calif.). Samples were solubilized by boiling in SDS sample buffer and subjected to SDS-PAGE. The proteins were subsequently transferred to a PVDF membrane (Bio-Rad, Hercules, Calif.). After blocking with 5% nonfat milk in TBS for 1 hour, the blots were incubated with a mouse monoclonal anti-Hsp70 antibody, which is specific for the inducible form of Hsp70 (Clone C92F3A-5, 1:1000 dilution, Stressgen Biotechnologies Corp., Victoria, B.C., Canada) or a rabbit polyclonal anti-GAPDH antibody (1:2000 dilution, Abcam, Cambridge, Mass.) for 2 hours at room temperature. The horseradish-peroxidase-conjugated secondary antibodies, anti-mouse horse radish peroxidase, (1:2000, Bio-Rad, Hercules, Calif.) and goat anti-rabbit polyclonal horse radish peroxidase (1:2000, Abcam, Cambridge, Mass.)) were diluted in blocking buffer and incubated with the blot for 1 hour at room temperature. The secondary antibodies were detected by enhanced chemiluminescence (ECL, Amersham Biosciences, Piscataway, N.J.) and imaged using a Kodak 440 Image Station.

[4] = tested on: 26S proteasome; test: Proteasome-sensor cells (HEK-293, GFP chimera), fluorescence imaging; format: cell-based; conditions: HEK-293, 0.5 μM, 24 hours
Description: Specifically, the proteasome-sensor cells are HEK-293 cells stably transfected with a vector (proteasome-sensor vector) that encodes naturally-occurring reef coral Zoanthus sp. green fluorescent protein (GFP) fused to a specific degradation motif that targets the fusion protein for removal by the 26S proteasome. The background fluorescence observed in normal cells with active proteasomes is low. When proteasomes are inhibited, the fluorescent protein quickly accumulates. […] Millennium Pharmaceuticals, Inc., Cambridge, Mass.). […] Velcade (Millennium Pharmaceuticals Inc.) was used as a positive control in this assay (at 5 nM, 50 nM, 500 nM or 5 μM). Velcade stock solution was prepared according to the manufacturer's instructions. GFP fluorescence of the cells was imaged at various time points using a standard filter for FITC with the Nikon TE300 microscope/digital imaging system described herein.

[5] = CHO cells, 10 μM, 8 hours post-treatment

CCCC[C@@H](C=O)NC(=O)[C@H](CC(C)C)NC(=O)[C@H](CC(C)C)NC(C)=O [ALLN] (Ac-Leu-Leu-[Nle]-aldehyde)
accumulation of α-tubulin-YFP at the centrosomes ([1]; CHO cells, 100 μM): accumulation of α-tubulin-YFP at the centrosomes and perinuclear regions
accumulation of YFP-tubulin in the nucleus ([1]; CHO cells, 100 μM, 8 hours post-treatment): caused the accumulation of YFP-tubulin in the nucleus
accumulation of tubulin-YFP at the centrosomes ([1]; CHO cells, 100 μM, 24 hours): accumulation of tubulin-YFP at the centrosomes
accumulation of tubulin in the centrosomes (overall statement) [1]: caused accumulation of tubulin-YFP at the centrosomes and in the perinuclear region
accumulation of tubulin at the centrosomes versus in the nucleus (overall statement) [1]: both accumulation of tubulin at the centrosomes and in the nucleus
proteasome inhibitory activity in vitro (overall statement) [2]: exhibited proteasome inhibitory activity
induction of Hsp70 expression ([3]; 6 and 24 hours): unable to induce expression of Hsp70; also recorded: not capable of inducing Hsp70 expression
percentage change in Hsp70 expression relative to DMSO control ([3]; 6 hours of treatment): 82%
percentage change in Hsp70 expression relative to DMSO control ([3]; 24 hours of treatment): 137%

CN(NC(=O)CC(=O)NN(C)C(=S)c1ccccc1)C(=S)c1ccccc1 [Compound 2]
proteasome inhibitory activity in vitro ([2]; 50 μM): neither Compound 1 nor its salt form, Compound 2, displayed significant proteasome inhibitory activity
accumulation of proteasome-sensor protein in cells [4]: accumulation of proteasome-sensor protein in cells

CN(NC(=O)CC(=O)NN(C)C(=S)c1ccccc1)C(=O)c1ccccc1 [Compound 3]
accumulation of tubulin-YFP at the centrosomes ([1]; CHO cells, 5 μM, 4 hours): lack of accumulation of tubulin-YFP at the centrosomes

Cc1cc(NC(=O)C(=O)c2cc(Cc3ccc(C#N)cc3)n3ccccc23)sn1 [Compound 4]
accumulation of tubulin-YFP at the centrosomes ([1]; CHO cells, 10 μM, 24 hours): lack of accumulation of tubulin-YFP at the centrosomes

C/C1=C/C[C@@H](/C(C)=C/c2csc(C)n2)OC(=O)C[C@H](O)C(C)(C)C(=O)[C@H](C)[C@@H](O)[C@@H](C)CCC1 [Epothilone D]
accumulation of tubulin-YFP at the centrosomes ([1]; CHO cells, 10 μM, 24 hours): lack of accumulation of tubulin-YFP at the centrosomes

CC[C@H](C)[C@H](NC(=O)[C@H]([C@@H](C)CC)N(C)C(C)=O)C(=O)N[C@H](C(=O)N[C@@H](CC(C)C)C(=O)[C@@]1(C)CO1)[C@@H](C)O [Epoxomicin]
accumulation of α-tubulin-YFP in the nucleus [1, 5]: accumulation of α-tubulin-YFP in the nucleus; also recorded: caused the accumulation of YFP-tubulin in the nucleus
accumulation of tubulin at the centrosomes versus in the nucleus (overall statement) [1]: both accumulation of tubulin at the centrosomes and in the nucleus

CC(=O)N[C@@H](CSC(=O)[C@]1([C@@H](O)C(C)C)NC(=O)[C@H](C)[C@@H]1O)C(=O)O [Lactacystin]
accumulation of α-tubulin-YFP at the centrosomes ([1]; CHO cells, 10 μM): accumulation of α-tubulin-YFP at the centrosomes and perinuclear regions
accumulation of α-tubulin-YFP in the nucleus [1, 5]: accumulation of α-tubulin-YFP in the nucleus; also recorded: caused the accumulation of YFP-tubulin in the nucleus
accumulation of tubulin-YFP at the centrosomes ([1]; CHO cells, 10 μM, 24 hours): accumulation of tubulin-YFP at the centrosomes
accumulation of tubulin in the centrosomes (overall statement) [1]: caused accumulation of tubulin-YFP at the centrosomes and in the perinuclear region
accumulation of tubulin at the centrosomes versus in the nucleus (overall statement) [1]: both accumulation of tubulin at the centrosomes and in the nucleus
proteasome inhibitory activity in vitro (overall statement) [2]: exhibited proteasome inhibitory activity
proteasome activity in vitro ([2]; 5 nM): detectable decrease in proteasome activity

CCC[C@@H](C=O)NC(=O)[C@H](CC(C)C)NC(=O)[C@H](CC(C)C)NC(=O)OCc1ccccc1 [MG115] (Cbz-Leu-Leu-[Nva]-aldehyde)
accumulation of α-tubulin-YFP in the nucleus [1, 5]: caused the accumulation of YFP-tubulin in the nucleus
accumulation of α-tubulin-YFP in the nucleus ([1]; CHO cells, 10 μM, 8 hours post-treatment, listed as MG-115): accumulation of α-tubulin-YFP in the nucleus
accumulation of tubulin at the centrosomes versus in the nucleus (overall statement) [1]: both accumulation of tubulin at the centrosomes and in the nucleus

CC[C@]1(O)C[C@H]2CN(CCc3c([nH]c4ccccc34)[C@@](C(=O)OC)(c3cc4c(cc3OC)N(C=O)[C@H]3[C@@](O)(C(=O)OC)[C@H](OC(C)=O)[C@]5(CC)C=CCN6CC[C@]43[C@@H]65)C2)C1 [Vincristine]
accumulation of tubulin-YFP at the centrosomes ([1]; CHO cells, 1 μM, 24 hours): lack of accumulation of tubulin-YFP at the centrosomes

CC(C)[C@H](O)[C@@]12NC(=O)[C@H](C)[C@@H]1OC2=O [clasto-Lactacystin β-Lactone]
accumulation of α-tubulin-YFP in the nucleus [1, 5]: accumulation of α-tubulin-YFP in the nucleus; also recorded: caused the accumulation of YFP-tubulin in the nucleus
accumulation of tubulin at the centrosomes versus in the nucleus (overall statement) [1]: both accumulation of tubulin at the centrosomes and in the nucleus
